Measurements taken from article PMC4542547 (Scientific Reports, 2015).
Several values for one entry are separate records, joined by “and”; a condition that tells them apart may be missing. Equal values may be shown once. Read-outs that look alike come from different tables or passages of the source. Positions of bridges follow the written chain, without caps; N, C: chain ends. Residues, ends and D or L forms follow the SMILES beside them.

Assays:
in vitro = settings: male, human, serum
human α9α10 nAChRs = molecular target: T1, human α9α10 nAChRs (Homo sapiens, UniProt Q9GZZ6+Q9UGM1); assay: cell-based; assay type: cell-based
T1 construct: expressed in transfected cells; host or cells: Xenopus laevis oocytes (cRNA injection)

[1] = system: rat N-type (Cav2.2) calcium channels; assay type: cell-based; settings: read-out: IC50 rN-type (Cav2.2)
[2] = system: recombinant human Cav2.3 calcium channels; assay type: cell-based; settings: read-out: IC50 hCav2.3
rat α9α10 nAChRs = settings: cited from earlier work
[3] = system: rat N-type (Cav2.2) calcium channels; settings: read-out: IC50 rN-type (Cav2.2); cited from earlier work
[4] = system: recombinant human Cav2.3 calcium channels; settings: read-out: IC50 hCav2.3; cited from earlier work

T1 sequence (Q9UGM1 26-479 limits assumed): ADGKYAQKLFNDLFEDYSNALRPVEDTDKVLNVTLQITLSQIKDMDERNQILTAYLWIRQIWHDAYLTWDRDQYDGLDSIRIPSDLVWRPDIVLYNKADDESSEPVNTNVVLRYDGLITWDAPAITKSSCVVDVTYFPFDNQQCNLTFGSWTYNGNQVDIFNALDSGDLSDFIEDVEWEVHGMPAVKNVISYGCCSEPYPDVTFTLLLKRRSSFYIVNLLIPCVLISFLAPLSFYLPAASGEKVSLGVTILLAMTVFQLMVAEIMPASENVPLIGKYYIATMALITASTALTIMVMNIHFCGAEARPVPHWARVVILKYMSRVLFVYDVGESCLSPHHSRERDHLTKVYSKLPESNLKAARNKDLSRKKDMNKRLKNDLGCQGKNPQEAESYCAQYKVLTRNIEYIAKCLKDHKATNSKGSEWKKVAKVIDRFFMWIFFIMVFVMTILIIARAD
T1 sequence (Q9GZZ6 25-450): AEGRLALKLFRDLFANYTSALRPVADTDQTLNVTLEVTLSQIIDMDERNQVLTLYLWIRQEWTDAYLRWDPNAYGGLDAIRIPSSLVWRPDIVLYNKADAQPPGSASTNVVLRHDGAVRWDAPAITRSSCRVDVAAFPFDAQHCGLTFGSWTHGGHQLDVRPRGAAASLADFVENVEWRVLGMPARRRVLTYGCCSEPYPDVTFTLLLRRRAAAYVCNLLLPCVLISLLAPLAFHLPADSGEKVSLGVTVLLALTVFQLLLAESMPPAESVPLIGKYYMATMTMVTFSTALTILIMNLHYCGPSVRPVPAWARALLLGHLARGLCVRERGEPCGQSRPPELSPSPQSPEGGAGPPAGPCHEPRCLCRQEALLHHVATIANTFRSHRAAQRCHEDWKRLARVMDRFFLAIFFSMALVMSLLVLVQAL

CC[C@H](C)[C@@H]1NC(=O)[C@H](CCC(=O)O)NC(=O)[C@@H]2CCCN2C(=O)[C@H](Cc2cnc[nH]2)NC(=O)[C@H](CC(=O)O)NC(=O)[C@H](Cc2ccc(O)cc2)NC(=O)[C@H](CC(N)=O)NC(=O)[C@H](Cc2ccccc2)NC(=O)[C@H](CCCNC(=N)N)NC(=O)[C@@H]2CCCN2C(=O)[C@H](CC(=O)O)NC(=O)[C@H](CO)NC(=O)[C@@H]2CSSC[C@H](NC1=O)C(=O)NCC(=O)NCC(=O)N[C@@H](C)C(=O)N[C@@H](C)C(=O)NCC(=O)NCC(=O)NCC(=O)N[C@@H](Cc1cnc[nH]1)C(=O)N2 [hcVc1.1] (cyclo(AAGGGHCSDPRFNYDHPEICGG); disulfide 7-20)
remaining at 24 h (in vitro): ~90%

CC[C@H](C)[C@@H]1NC(=O)[C@H](CCC(=O)O)NC(=O)[C@@H]2CCCN2C(=O)[C@H](Cc2c[nH]cn2)NC(=O)[C@H](CC(=O)O)NC(=O)[C@H](Cc2ccc(O)cc2)NC(=O)[C@H](CC(N)=O)NC(=O)[C@H](Cc2ccccc2)NC(=O)[C@H](CCCNC(=N)N)NC(=O)[C@@H]2CCCN2C(=O)[C@H](CC(=O)O)NC(=O)[C@H](CO)NC(=O)[C@@H]2CSSC[C@H](NC1=O)C(=O)NCC(=O)NCC(=O)N[C@@H](C)C(=O)N[C@@H](C)C(=O)NCC(=O)NCC(=O)NCC(=O)N[C@@H](Cc1c[nH]cn1)C(=O)N2 [hcVc1.1] (cyclo(AAGGGHCSDPRFNYDHPEICGG); disulfide 7-20)
lower potency than cVc1.1 at human recombinant α9α10 nAChR currents (human α9α10 nAChRs): two-fold
IC50 [1]: ~0.9 nM and 0.857 nM
IC50 [2]: ~0.9 nM and 0.961 nM

CC[C@H](C)[C@@H]1NC(=O)[C@H](CCC(=O)O)NC(=O)[C@@H]2CCCN2C(=O)[C@H](Cc2cnc[nH]2)NC(=O)[C@H](CC(=O)O)NC(=O)[C@H](Cc2ccc(O)cc2)NC(=O)[C@H](CC(N)=O)NC(=O)[C@@H]2CSSC[C@H](NC(=O)CN)C(=O)N[C@@H](CSSC[C@@H](C(N)=O)NC1=O)C(=O)N[C@@H](CO)C(=O)N[C@@H](CC(=O)O)C(=O)N1CCC[C@H]1C(=O)N[C@@H](CCCNC(=N)N)C(=O)N2 [Vc1.1, reference compound]
IC50 (human α9α10 nAChRs): 320 nM

CC[C@H](C)[C@@H]1NC(=O)[C@H](CCC(=O)O)NC(=O)[C@@H]2CCCN2C(=O)[C@H](Cc2c[nH]cn2)NC(=O)[C@H](CC(=O)O)NC(=O)[C@H](Cc2ccc(O)cc2)NC(=O)[C@H](CC(N)=O)NC(=O)[C@@H]2CSSC[C@@H]3NC(=O)CNC(=O)CNC(=O)CNC(=O)[C@H](C)NC(=O)[C@H](C)NC(=O)CNC(=O)CNC(=O)[C@H](CSSC[C@H](NC3=O)C(=O)N[C@@H](CO)C(=O)N[C@@H](CC(=O)O)C(=O)N3CCC[C@H]3C(=O)N[C@@H](CCCNC(=N)N)C(=O)N2)NC1=O [cVc1.1]
IC50 (rat α9α10 nAChRs): 765 nM
IC50 [3]: 0.3 nM
IC50 [4]: 0.29 nM
